The text below walks through data of patent US8198315B2, “Therapeutic substituted cyclic lactams” (Allergan, Inc., priority 2007, dated 2012).

Series [1] concerns the target T1, EP2 (Homo sapiens, UniProt P43116). The series is described as follows: EP2 flipr assay. The format is cell-based. An excerpt:
(§1) U.S. patent application Ser. No. 11/553,143, filed on Oct. 26, 2006, incorporated by reference herein, describes the methods used to obtain the in vitro data in the table below.

The target in series [2] is T1, EP2. Briefly: EP2 cAMP assay. It counts as cell-based.
Excerpt: as §1

The target in series [3] is T1, EP2. Briefly: EP2 binding (Ki).
Excerpt: as §1

Series [4] addresses T2, hEP3A (Homo sapiens, UniProt P43115).
T2 sequence (P43115 1-390): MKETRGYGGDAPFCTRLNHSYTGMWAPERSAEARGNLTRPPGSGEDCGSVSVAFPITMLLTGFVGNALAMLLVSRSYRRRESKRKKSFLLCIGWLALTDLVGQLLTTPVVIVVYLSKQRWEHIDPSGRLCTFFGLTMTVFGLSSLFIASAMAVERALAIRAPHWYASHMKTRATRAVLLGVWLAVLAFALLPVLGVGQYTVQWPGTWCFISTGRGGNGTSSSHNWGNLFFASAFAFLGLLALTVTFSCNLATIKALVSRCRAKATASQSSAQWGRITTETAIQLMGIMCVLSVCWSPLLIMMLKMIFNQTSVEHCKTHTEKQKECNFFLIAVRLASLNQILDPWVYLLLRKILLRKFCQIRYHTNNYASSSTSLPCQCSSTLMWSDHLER
The series is described as follows: Other receptors functional assay, hEP3A. It counts as cell-based.
Excerpt: as §1

Series [5] deals with T3, hTP (Homo sapiens, UniProt P21731).
T3 sequence (P21731 1-343): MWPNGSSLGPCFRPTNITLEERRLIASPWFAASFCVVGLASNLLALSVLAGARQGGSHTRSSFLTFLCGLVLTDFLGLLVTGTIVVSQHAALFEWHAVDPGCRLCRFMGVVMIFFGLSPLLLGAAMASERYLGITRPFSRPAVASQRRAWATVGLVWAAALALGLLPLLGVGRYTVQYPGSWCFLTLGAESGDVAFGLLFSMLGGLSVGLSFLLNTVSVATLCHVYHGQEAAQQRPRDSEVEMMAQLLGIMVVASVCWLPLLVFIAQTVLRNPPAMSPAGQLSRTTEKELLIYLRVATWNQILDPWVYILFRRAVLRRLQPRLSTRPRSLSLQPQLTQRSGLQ
Briefly: Other receptors functional assay, hTP. The format is cell-based.
Excerpt: as §1

Series [6] deals with hIP (Homo sapiens, UniProt P43119). The series is described as follows: Other receptors functional assay, hIP. It counts as cell-based.
Excerpt: as §1

For series [7], the target named is T4, hDP (Homo sapiens, UniProt Q13258).
T4 sequence (Q13258 1-359): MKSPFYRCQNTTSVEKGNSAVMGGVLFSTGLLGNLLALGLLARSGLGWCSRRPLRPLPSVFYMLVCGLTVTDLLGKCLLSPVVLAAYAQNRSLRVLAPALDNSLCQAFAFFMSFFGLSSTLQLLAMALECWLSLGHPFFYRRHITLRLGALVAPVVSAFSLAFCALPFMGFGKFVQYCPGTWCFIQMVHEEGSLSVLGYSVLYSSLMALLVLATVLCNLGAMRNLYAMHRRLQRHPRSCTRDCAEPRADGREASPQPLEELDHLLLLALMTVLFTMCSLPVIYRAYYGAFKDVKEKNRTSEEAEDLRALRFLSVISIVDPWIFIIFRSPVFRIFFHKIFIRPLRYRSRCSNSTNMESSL
The series is described as follows: Other receptors functional assay, hDP. The format is cell-based.
Excerpt: as §1

Series [8] addresses T5, EP4 (Homo sapiens, UniProt P35408). Briefly: EP4 flipr assay. It counts as cell-based. The conditions noted are these: read-out: EP4 data flip EC50.
Excerpt: as §1

Series [9] concerns the target T5, EP4. The series is described as follows: EP4 binding (Ki).
Excerpt: as §1

Series [10] concerns normotensive dogs. The series is described as follows: Intraocular pressure in normotensive dogs. The conditions noted are these: once daily for 5 days, at 78 h. The format is in vivo, dog. The procedure:
(§2) U.S. Pat. No. 7,091,231 describes the methods used to carry out the tests reported below.
(§3) 5-[(R)-1-((S)-3-Hydroxyoctyl)-5-oxopyrrolidin-2-ylmethoxymethyl]-thiophene-2-carboxylic isopropyl ester was tested in normotensive dogs at 2 concentrations, dosing once daily for 5 days. At 0.1%, the maximum intraocular pressure (TOP) decrease from baseline was 8 mmHg (47%) at 78 h; the maximum ocular surface hyperemia (OSH) score was 2.25 at 50 h. At 0.01%, the maximum TOP decrease from baseline was 6.1 mmHg (35%) at 78 h; the maximum OSH score was 1.7 at 30 h. This compound was also tested in laser-induced hypertensive monkeys, using one single day dose. At 0.1%, the maximum TOP decrease from baseline was 17 mmHg (48%) at 6 h.

Series [11] deals with normotensive dogs. The series is described as follows: Ocular surface hyperemia in normotensive dogs. The conditions noted are these: once daily for 5 days. It counts as in vivo, dog. The procedure: as §2, §3
Series [12] concerns laser-induced hypertensive monkeys. Briefly: Intraocular pressure in laser-induced hypertensive monkeys. It counts as in vivo, monkey. The conditions noted are these: 0.1%, one single day dose, at 6 h. The procedure:
as §2, §3

Chain of hIP (P43119 whole entry): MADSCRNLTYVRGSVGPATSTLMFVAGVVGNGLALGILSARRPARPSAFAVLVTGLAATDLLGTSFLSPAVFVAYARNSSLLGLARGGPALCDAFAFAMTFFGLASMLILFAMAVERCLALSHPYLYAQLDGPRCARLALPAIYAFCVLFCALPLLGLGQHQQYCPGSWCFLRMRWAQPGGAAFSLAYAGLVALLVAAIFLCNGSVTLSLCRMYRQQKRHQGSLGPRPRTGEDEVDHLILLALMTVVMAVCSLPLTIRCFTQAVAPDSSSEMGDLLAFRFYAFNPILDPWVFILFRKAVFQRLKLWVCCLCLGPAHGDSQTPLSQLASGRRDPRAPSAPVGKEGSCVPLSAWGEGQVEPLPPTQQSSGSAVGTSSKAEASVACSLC
T1 sequence (P43116 whole entry): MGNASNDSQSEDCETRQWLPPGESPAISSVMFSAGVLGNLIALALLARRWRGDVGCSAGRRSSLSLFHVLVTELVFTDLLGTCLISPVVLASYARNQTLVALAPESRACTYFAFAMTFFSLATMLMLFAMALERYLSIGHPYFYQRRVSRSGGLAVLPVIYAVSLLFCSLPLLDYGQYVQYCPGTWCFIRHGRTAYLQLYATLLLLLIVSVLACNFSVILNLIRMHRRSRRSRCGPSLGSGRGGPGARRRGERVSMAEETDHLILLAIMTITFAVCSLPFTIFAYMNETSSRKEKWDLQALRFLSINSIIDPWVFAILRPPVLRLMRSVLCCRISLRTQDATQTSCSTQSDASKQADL
T5 sequence (P35408 whole entry): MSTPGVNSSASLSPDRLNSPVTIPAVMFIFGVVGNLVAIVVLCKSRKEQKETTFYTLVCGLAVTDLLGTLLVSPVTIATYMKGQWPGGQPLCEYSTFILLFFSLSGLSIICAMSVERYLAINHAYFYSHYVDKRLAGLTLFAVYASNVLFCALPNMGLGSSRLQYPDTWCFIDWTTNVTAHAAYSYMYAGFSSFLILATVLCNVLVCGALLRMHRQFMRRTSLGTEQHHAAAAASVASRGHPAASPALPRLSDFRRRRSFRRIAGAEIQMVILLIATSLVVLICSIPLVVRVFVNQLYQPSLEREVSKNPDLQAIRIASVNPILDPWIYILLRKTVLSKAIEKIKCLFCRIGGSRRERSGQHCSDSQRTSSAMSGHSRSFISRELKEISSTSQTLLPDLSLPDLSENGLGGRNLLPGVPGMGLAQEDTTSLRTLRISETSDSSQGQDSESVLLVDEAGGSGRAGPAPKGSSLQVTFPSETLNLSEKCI

For `CCCC1(C(O)CCCN2C(=O)CC[C@@H]2COCc2ccc(C(=O)O)s2)CCC1` (mixture of isomers) [Example 4, 5-{(R)-1-[4-Hydroxy-4-(1-propylcyclobutyl)-butyl]-5-oxopyrrolidin-2-ylmethoxymethyl}-thiophene-2-carboxylic acid], the EC50 was > 10 µM in series [1]; 0.02 µM in series [2]; > 10 µM in series [4]; > 10 µM in series [5]; > 10 µM in series [6]; 0.213 µM in series [7]. Further, in [3], the Ki is 1.2 µM.

As for `CCCCC[C@H](O)CCN1C(=O)CC[C@@H]1COCc1ccc(C(=O)O)s1` [Example 1, 5-[(R)-1-((S)-3-Hydroxyoctyl)-5-oxopyrrolidin-2-ylmethoxymethyl]-thiophene-2-carboxylic acid], the EC50 in series [1] is 1.57 µM; in [2], 0.019 µM; in series [8], 7.85 µM; in series [4], 2.22 µM; in series [5] it was 4.89 µM; in series [7], 0.0068 µM. Besides, the figures for the inhibition constant (Ki) in [3] and in [9] were 2.88 µM and 8.72 µM, respectively.

For the molecule `CCCCC[C@H](O)CCN1C(=O)CC[C@@H]1COCc1ccc(C(=O)NS(C)(=O)=O)s1` [Example 2, N-{5-[(R)-1-((S)-3-Hydroxy-octyl)-5-oxopyrrolidin-2-ylmethoxymethyl]-thiophene-2-carbonyl}-methanesulfonamide], the EC50 in series [4] was 2.03 µM; in series [5] it was > 10 µM; in series [6] it was > 10 µM; in series [7] it was 0.194 µM.

For `CCCCC[C@H](O)CCN1C(=O)CC[C@@H]1COCc1ccc(C(=O)NCC)s1` [Example 3, 5-[(R)-1-((S)-3-Hydroxy-octyl)-5-oxopyrrolidin-2-ylmethoxymethyl]-thiophene-2-carboxylic acid ethylamide], the EC50 in series [5], in [6] and in series [7] was > 10 µM each time.

Take `CCCCC[C@H](O)CCN1C(=O)CC[C@@H]1COCc1ccc(C(=O)OC(C)C)s1` [Example 5, 5-[(R)-1-((S)-3-Hydroxyoctyl)-5-oxopyrrolidin-2-ylmethoxymethyl]-thiophene-2-carboxylic isopropyl ester]: the “maximum intraocular pressure decrease from baseline” value in series [10] (0.01%) was 6.1 mmHg; in [10] (0.1%), 8 mmHg; in series [12] it was 17 mmHg. In addition, the “maximum intraocular pressure decrease from baseline (percent)” value is given as 35% in [10] (0.01%), 47% in series [10] (0.1%) and 48% in series [12]. Also, the “maximum ocular surface hyperemia (OSH) score” value in [11] (0.01%, at 30 h) turned out to be 1.7; in [11] (0.1%, at 50 h), 2.25.

As usually defined, the EC50 is the midpoint of the concentration-response curve. As a reminder, the Ki is a dissociation constant, usually derived from enzyme kinetics or from competition with a known ligand. A high value points to lower affinity.
